Where two headings read alike, the source gives them in different places.
System: SMN protein
Test: cellular SMN ELISA (SMN protein elevation) in myoblast cell line from SMNdelta7 mouse model
Assay type: cell-based
Procedure: A cellular SMN ELISA was used to measure the effects of low molecular weight compounds on SMN protein elevation. Cells from a myoblast cell line derived from the SMNdelta7 mouse model (kind gift from Steve Burden, NYU) were seeded into a 384-well plate at a density of 3000 cells/well and treated with compounds for 24 hours. ELISA capture plates were prepared by coating 384-well plates (Immulon 4HBX) with 0.5 ug/mL of anti-SMN mAb (BD Science, Catalog number 610647) at 4° C. overnight. The plates were washed 5 times with 110 uL of PBS-Tween (0.05% Tween-20, PBST), blocked with 100 uL of 1% BSA in PBST for 2 hours and washed (5 times) with 100 uL of PBST. After 24 hours of compound treatment cells were lysed in a modified RIPA-buffer, on ice for 1 hour. 20 uL of lysate and 20 uL of 1% BSA were then added to the ELISA capture plates and incubated at 4° C. overnight. Plates were washed (5 times) with PBST and then incubated with 1:100 dilution of primary rabbit anti-SMN polyclonal antibody (Santa cruz, Catalog number SC-15320) at room temperature for 1 hour and subsequently washed (5 times) with 110 uL of PBST. This was followed by addition of 1:100 Goat anti-Rabbit IgG-HRP linked (Cell Signaling, Catalog number 7074) secondary antibody for 1 hour. Plates were then washed with PBST and incubated with 40 uL TMB substrate (Cell Signaling, Catalog number 7004 L) at room temperature for 1-10 minutes with shaking. The reaction was stopped by addition of 40 uL of stop solution (Cell signaling, Catalog number 7002 L) and absorption was measured at 450 nm. Data was reported as fold activation over DMSO control, and EC50.
ELISA assay condition 1: compound concentration range 20 nM-10 uM; ELISA assay condition 2: compound concentration 100 pM-10 uM. Data generated in Biological Example 1 using ELISA conditions 1 or 2.

[1] = Biological Example 1, SMN ELISA, SMNdelta7 mouse myoblasts, 24 hours compound treatment
[2] = Biological Example 1, SMN ELISA, SMNdelta7 mouse myoblasts, 24 hours compound treatment, read-out: SMN Activity (EC50)
[3] = comparison of unsubstituted, ortho-hydroxy and ortho-alkoxy pyridazines, as in Biological Example 1
[4] = comparison of unsubstituted, ortho-hydroxy and ortho-alkoxy pyridazines, as in Biological Example 1, read-out: SMN ELISA EC50

`Cc1cc(C2COC2)c2cc(-c3ccc(N(C)C4CC(C)(C)NC(C)(C)C4)nn3)c(O)cc2n1` [Example 20-6, 2-methyl-6-(6-(methyl(2,2,6,6-tetramethylpiperidin-4-yl)amino)pyridazin-3-yl)-4-(oxetan-3-yl)quinolin-7-ol] was tested, and the “SMN Activity (fold activation over DMSO control)” value [1] was 3.18 fold and the EC50 [2] was 165 nM.
For `CN(c1ccc(-c2cc3nc(C#N)ccc3cc2O)nn1)C1CC(C)(C)NC(C)(C)C1` [Example 26-3, 6-hydroxy-7-(6-(methyl(2,2,6,6-tetramethylpiperidin-4-yl)amino)pyridazin-3-yl)quinoline-2-carbonitrile], the “SMN Activity (fold activation over DMSO control)” value [1] was 3.47 fold and the EC50 [2] was 6 nM.
`CN(c1ccc(-c2ccc3ccncc3c2)nn1)C1CC(C)(C)NC(C)(C)C1` [drawing 137 R = H] gave a Fold activation [3] of 2.7 and an EC50 [4] of 250 nM.
For `CN(c1ccc(-c2cc3nc(C(N)=O)ccc3cc2O)nn1)C1CC(C)(C)NC(C)(C)C1` [Example 26-6, 6-hydroxy-7-(6-(methyl(2,2,6,6-tetramethylpiperidin-4-yl)amino)pyridazin-3-yl)quinoline-2-carboxamide], the “SMN Activity (fold activation over DMSO control)” value [1] was 2.6 fold and the EC50 [2] was 7 nM.
In the case of `Cc1cc(C#N)c2cc(-c3ccc(N(C)C4CC(C)(C)NC(C)(C)C4)nn3)c(O)cc2n1` [Example 20-2, 7-hydroxy-2-methyl-6-(6-(methyl(2,2,6,6-tetramethylpiperidin-4-yl)amino)pyridazin-3-yl)quinoline-4-carbonitrile], the “SMN Activity (fold activation over DMSO control)” value [1] is reported as 2.68 fold and the EC50 [2] is reported as 48 nM.
`CN(c1ccc(-c2cc3c(C4CC4)nccc3cc2O)nn1)C1CC(C)(C)NC(C)(C)C1` [Example 3-5, 1-cyclopropyl-7-(6-(methyl(2,2,6,6-tetramethylpiperidin-4-yl)amino)pyridazin-3-yl)isoquinolin-6-ol] was tested, and the “SMN Activity (fold activation over DMSO control)” value [1] was 2.54 fold and the EC50 [2] was 14 nM.
With `CN(c1ccc(-c2cc3ccc(C#N)nc3cc2O)nn1)C1CC(C)(C)NC(C)(C)C1` [Example 26-2, 7-hydroxy-6-(6-(methyl(2,2,6,6-tetramethylpiperidin-4-yl)amino)pyridazin-3-yl)quinoline-2-carbonitrile] the “SMN Activity (fold activation over DMSO control)” value [1] was 3.14 fold and the EC50 [2] was 7 nM.
In the case of `CN(c1ccc(-c2cc3cc(Br)cnc3cc2O)nn1)C1CC(C)(C)NC(C)(C)C1` [Example 7-2, 3-bromo-6-(6-(methyl(2,2,6,6-tetramethylpiperidin-4-yl)amino)pyridazin-3-yl)quinolin-7-ol], the “SMN Activity (fold activation over DMSO control)” value [1] is reported as 2.6 fold and the EC50 [2] is reported as 8 nM.
With `CN(c1ccc(-c2cc3nccnc3cc2O)nn1)C1CC(C)(C)NC(C)(C)C1` [Example 13-1, 7-(6-(methyl(2,2,6,6-tetramethylpiperidin-4-yl)amino)pyridazin-3-yl)quinoxalin-6-ol] the “SMN Activity (fold activation over DMSO control)” value [1] was 2.7 fold, the EC50 [2] was 9 nM and the Fold activation [3] was 2.7 —. For the same compound, the EC50 [4] was 9 nM.
`CN(c1ccc(-c2ccc3cnccc3c2)nn1)C1CC(C)(C)NC(C)(C)C1` [drawing 138 R = H] was tested, and the Fold activation [3] was 2.7 and the EC50 [4] was 320 nM.
For `Cc1cc(N(C)C)c2cc(-c3ccc(N(C)C4CC(C)(C)NC(C)(C)C4)nn3)c(O)cc2n1` [Example 10-4, 4-(Dimethylamino)-2-methyl-6-(6-(methyl(2,2,6,6-tetramethylpiperidin-4-yl)amino)pyridazin-3-yl)quinolin-7-ol], the “SMN Activity (fold activation over DMSO control)” value [1] was 2.7 fold and the EC50 [2] was 12 nM.
In the case of `CN(c1ccc(-c2cc3ccc(C(N)=O)nc3cc2O)nn1)C1CC(C)(C)NC(C)(C)C1` [Example 26-5, 7-hydroxy-6-(6-(methyl(2,2,6,6-tetramethylpiperidin-4-yl)amino)pyridazin-3-yl)quinoline-2-carboxamide], the “SMN Activity (fold activation over DMSO control)” value [1] is reported as 2.16 fold and the EC50 [2] is reported as 1 nM.
With `Cc1cc(N2CCCC2)c2cc(-c3ccc(N(C)C4CC(C)(C)NC(C)(C)C4)nn3)c(O)cc2n1` [Example 10-2, 2-methyl-6-(6-(methyl(2,2,6,6-tetramethylpiperidin-4-yl)amino)pyridazin-3-yl)-4-(pyrrolidin-1-yl)quinolin-7-ol] the “SMN Activity (fold activation over DMSO control)” value [1] was 2.6 fold and the EC50 [2] was 65 nM.
`COc1cc(C)nc2cc(O)c(-c3ccc(N(C)C4CC(C)(C)NC(C)(C)C4)nn3)cc12` [Example 10-1, 4-methoxy-2-methyl-6-(6-(methyl(2,2,6,6-tetramethylpiperidin-4-yl)amino)pyridazin-3-yl)quinolin-7-ol] was tested, and the “SMN Activity (fold activation over DMSO control)” value [1] was 3.3 fold and the EC50 [2] was 10 nM.
In the case of `COc1ccnc2cc(-c3ccc(N(C)C4CC(C)(C)NC(C)(C)C4)nn3)c(O)cc12` [Example 12-1, 4-methoxy-7-(6-(methyl(2,2,6,6-tetramethylpiperidin-4-yl)amino)pyridazin-3-yl)quinolin-6-ol], the “SMN Activity (fold activation over DMSO control)” value [1] is reported as 2.4 fold and the EC50 [2] is reported as 3 nM.
In the case of `CN(c1ccc(-c2cc3c(C#N)nccc3cc2O)nn1)C1CC(C)(C)NC(C)(C)C1` [Example 3-7, 6-hydroxy-7-(6-(methyl(2,2,6,6-tetramethylpiperidin-4-yl)amino)pyridazin-3-yl)isoquinoline-1-carbonitrile], the “SMN Activity (fold activation over DMSO control)” value [1] is reported as 2.9 fold and the EC50 [2] is reported as 2 nM.
`Cc1cc(C2=CCOCC2)c2cc(-c3ccc(N(C)C4CC(C)(C)NC(C)(C)C4)nn3)c(O)cc2n1` [Example 20-4, 4-(3,6-dihydro-2H-pyran-4-yl)-2-methyl-6-(6-(methyl(2,2,6,6-tetramethylpiperidin-4-yl)amino)pyridazin-3-yl)quinolin-7-ol] was tested, and the “SMN Activity (fold activation over DMSO control)” value [1] was 2.72 fold and the EC50 [2] was 166 nM.
In the case of `CN(c1ccc(-c2cc3cnccc3cc2O)nn1)C1CC(C)(C)NC(C)(C)C1` [Example 3-2, 7-(6-(methyl(2,2,6,6-tetramethylpiperidin-4-yl)amino)pyridazin-3-yl)isoquinolin-6-ol], the “SMN Activity (fold activation over DMSO control)” value [1] is reported as 2.75 fold, the EC50 [2] is reported as 5 nM and the Fold activation [3] is reported as 2.8. It also gave an EC50 [4] of 5 nM.
In the case of `CN(c1ccc(-c2cc3cc(C#N)cnc3cc2O)nn1)C1CC(C)(C)NC(C)(C)C1` [Example 7-3, 7-hydroxy-6-(6-(methyl(2,2,6,6-tetramethylpiperidin-4-yl)amino)pyridazin-3-yl)quinoline-3-carbonitrile], the “SMN Activity (fold activation over DMSO control)” value [1] is reported as 3.1 fold and the EC50 [2] is reported as 8 nM.
In the case of `CCOc1cc(C)nc2cc(O)c(-c3ccc(N(C)C4CC(C)(C)NC(C)(C)C4)nn3)cc12` [Example 10-5, 4-Ethoxy-2-methyl-6-(6-(methyl(2,2,6,6-tetramethylpiperidin-4-yl)amino)pyridazin-3-yl)quinolin-7-ol], the “SMN Activity (fold activation over DMSO control)” value [1] is reported as 3.3 fold and the EC50 [2] is reported as 20 nM.
For `COc1ccnc2cc(O)c(-c3ccc(N(C)C4CC(C)(C)NC(C)(C)C4)nn3)cc12` [Example 19-1, 4-methoxy-6-(6-(methyl(2,2,6,6-tetramethylpiperidin-4-yl)amino)pyridazin-3-yl)quinolin-7-ol], the “SMN Activity (fold activation over DMSO control)” value [1] was 2.65 fold and the EC50 [2] was 10 nM.
For `CCc1cnc2cc(O)c(-c3ccc(N(C)C4CC(C)(C)NC(C)(C)C4)nn3)cc2c1` [Example 8-1, 3-ethyl-6-(6-(methyl(2,2,6,6-tetramethylpiperidin-4-yl)amino)pyridazin-3-yl)quinolin-7-ol], the “SMN Activity (fold activation over DMSO control)” value [1] was 2.9 fold and the EC50 [2] was 86 nM.
For `CCOc1nccc2cc(O)c(-c3ccc(N(C)C4CC(C)(C)NC(C)(C)C4)nn3)cc12` [Example 35-3, 1-ethoxy-7-(6-(methyl(2,2,6,6-tetramethylpiperidin-4-yl)amino)pyridazin-3-yl)isoquinolin-6-ol], the “SMN Activity (fold activation over DMSO control)” value [1] was 2.26 fold and the EC50 [2] was 13 nM.
For `CN(c1ccc(-c2cc3nccc(Cl)c3cc2O)nn1)C1CC(C)(C)NC(C)(C)C1` [Preparation 13, 4-chloro-7-(6-(methyl(2,2,6,6-tetramethylpiperidin-4-yl)amino)pyridazin-3-yl)quinolin-6-ol], the “SMN Activity (fold activation over DMSO control)” value [1] was 2.6 fold and the EC50 [2] was 7 nM.
With `CN(c1ccc(-c2cc3ccnc(C#N)c3cc2O)nn1)C1CC(C)(C)NC(C)(C)C1` [Example 26-1, 7-hydroxy-6-(6-(methyl(2,2,6,6-tetramethylpiperidin-4-yl)amino)pyridazin-3-yl)isoquinoline-1-carbonitrile] the “SMN Activity (fold activation over DMSO control)” value [1] was 2.58 fold and the EC50 [2] was 16 nM.
In the case of `Cc1cc(Cl)c2cc(-c3ccc(N(C)C4CC(C)(C)NC(C)(C)C4)nn3)c(O)cc2n1` [Preparation 11, 4-chloro-2-methyl-6-(6-(methyl(2,2,6,6-tetramethylpiperidin-4-yl)amino)pyridazin-3-yl)quinolin-7-ol], the “SMN Activity (fold activation over DMSO control)” value [1] is reported as 2.6 fold and the EC50 [2] is reported as 280 nM.

— patent US11672799B2, “1,4-disubstituted pyridazine quinolne analogs there of and methods for treating SMN-deficiency-related conditions” (Novartis AG, priority 2013, dated 2023)
